Experiments:
[1] = test system: STAT3 activation in multiple cancer cell lines; design: method as in PMID 21490133; details: cited from earlier work
NCI-H1650 = assay: Cell proliferation assay (CellTiter-Glo); format: cell-based, human; details: Homo sapiens, NCI-H1650, 72 h, NCI-H1650 cells, 20 μM to 0.009 μM in serial 3-fold dilutions
Description: (§1) All cells were obtained from the cell bank of the American Type Culture Collection (ATCC) and cultured in the supplier's recommended media supplemented with 10% FBS. The cell panel screen was measured using the CellTiter-Glo assay (Promega, Madison, WI) following a standard protocol. Briefly, cancer cells were seeded in 96-well plates and cultured overnight at 37°C with or without 5% CO2 in an incubator. Each compound was dissolved with limited DMSO and diluted to a certain concentration with culture medium and then added to the corresponding well of the cell plate. The final concentration of compound was 20 μM. The control cells (without treatment) received the same amount of DMSO and were incubated under the same conditions. After 72 h cultivation, 100 μL of the CellTiter-Glo reagent was added directly to each well for 10-minute incubation. The plate was then read on a FlexStation 3 microplate luminometer (Molecular Devices, USA) to monitor the luminescence signal generated by the luciferase-catalyzed reaction of luciferin and ATP. The percent of growth inhibition was calculated using the following formula: (untreated cells − treated cells)/(untreated cells − background without cells) ∗ 100.
(§2) For proliferation assays, the CellTiter-Glo assay (Promega, Madison, WI) was used to evaluate the proliferation of cancer cells treated with test compounds as described above. Each compound was dissolved in limited DMSO and diluted to various concentrations with culture medium and then added to the corresponding wells. A dose-response curve was plotted, and the IC50 was calculated using XLfit software.

A549 = assay: Cell proliferation assay (CellTiter-Glo); format: cell-based; details: Homo sapiens, A549 cells, 72 h
Description: as §1, §2

CHP212 = assay: Cell proliferation assay (CellTiter-Glo); format: cell-based; details: Homo sapiens, CHP-212, CHP212 cells, 72 h
Description: as §1, §2

NCI-H1993 = assay: Cell proliferation assay (CellTiter-Glo); format: cell-based; details: Homo sapiens, NCI-H1993 cells, 72 h
Description: as §1, §2

NCI-H838 = assay: Cell proliferation assay (CellTiter-Glo); format: cell-based; details: Homo sapiens, NCI-H838 cells, 72 h
Description: as §1, §2

SW1353 = assay: Cell proliferation assay (CellTiter-Glo); format: cell-based; details: Homo sapiens, SW1353 cells, 72 h
Description: as §1, §2

SW954 = assay: Cell proliferation assay (CellTiter-Glo); format: cell-based; details: Homo sapiens, SW 954, SW954 cells, 72 h
Description: as §1, §2

HuVec = assay: Cell proliferation assay (CellTiter-Glo), control cell line; format: cell-based; details: Homo sapiens, 72 h
Description: as §1, §2

Structure (SMILES)	STAT3 activation upon IL-6 treatment [1]	IC50 (NCI-H1650)	IC50 (A549)	IC50 (CHP212)	IC50 (NCI-H1993)	IC50 (NCI-H838)	IC50 (SW1353)	IC50 (SW954)	IC50 (HuVec)
CC(C)=CCC[C@]1(C)C=Cc2c(O)c3c(c(CC=C(C)C)c2O1)O[C@]12C(=C[C@@H]4C[C@H]1C(C)(C)O[C@@]2(C/C=C(/C)C(=O)O)C4=O)C3=O [gambogic acid]	able to inhibit STAT3 activation								
CN[C@@H]1C[C@H]2O[C@@](C)([C@@H]1OC)n1c3ccccc3c3c4c(c5c6ccccc6n2c5c31)C(=O)NC4 [Staurosporine, staurosporine, reference compound]		22 ± 4 nM	8 ± 2 nM	4 ± 1 nM	21 ± 7 nM	11 ± 4 nM	4 ± 1 nM	6 ± 1 nM	4 ± 2 nM

— article PMC4450297, “Screening Active Compounds from Garcinia Species Native to China Reveals Novel Compounds Targeting the STAT/JAK Signaling Pathway” (BioMed Research International, 2015)
